Test results as given in patent US8008325B2, “Plasma carboxypeptidase B inhibitors” (Bayer Schering Pharma AG, priority 2002, dated 2011).

Experiments:
[1] = biological target: T1, activated plasma carboxypeptidase B (Homo sapiens, UniProt Q96IY4); assay: Assay for activated plasma carboxypeptidase B activity (hippuryl-Arg hydrolysis, colorimetric); type: biochemical; conditions: used as positive standard; hippuryl-Arg final 1 mM
T1 sequence (Q96IY4 115-423): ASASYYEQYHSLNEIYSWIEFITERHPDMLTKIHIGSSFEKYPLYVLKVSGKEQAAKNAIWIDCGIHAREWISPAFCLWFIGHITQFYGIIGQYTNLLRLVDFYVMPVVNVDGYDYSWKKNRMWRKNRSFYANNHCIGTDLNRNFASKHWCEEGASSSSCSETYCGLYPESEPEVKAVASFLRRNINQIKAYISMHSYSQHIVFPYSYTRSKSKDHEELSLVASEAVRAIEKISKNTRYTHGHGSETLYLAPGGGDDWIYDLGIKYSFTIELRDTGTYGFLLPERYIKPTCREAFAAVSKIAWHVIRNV
Procedure: The compounds of the invention were tested in an in vitro assay according to the method described in Hendriks et al., “Colorimetric assay for carboxypeptidase N in serum”, Clinica Chimica Acta (1986), Vol. 157, pp. 103-108 and Zhao et al., “Identification and characterization of two thrombin-activatable fibrinolysis inhibitor isoforms”, Thromb. Haemost. (1998), Vol. 80, pp. 949-955.
Activation of Plasma Carboxypeptidase B:
The following reagents were mixed together at a total volume of 200 μL:
The above mixture was incubated for 15 minutes at ambient temperature. The activation process was stopped by the addition of 2 μl of PPACK, D-Phe-Pro-Arg chloromethylketone (100 μM, final 1.0 μM). The mixture was then diluted 1:36 with the activation buffer containing 0.1% BSA. The resulting diluted mixture was kept on ice. […] The resulting sample mixture was incubated for 2 minutes at ambient temperature. To the sample mixture was added 12 μL of 5 mM hippuryl-Arg (final 1 mM (=Km)). The resulting sample mixture was incubated at ambient temperature for 30 minutes. At the end of the reaction, the product, hippuric acid, in the sample mixture was converted to a chromogen by adding the following to the mixture: • 80 μL of 0.2 M sodium phosphate buffer, pH 8.3 • 60 μL of 3% cyanuric chloride in dioxane (w/v). […] Optical density of the samples was measured at 382 nm.

[2] = biological target: T2, plasma carboxypeptidase B (Homo sapiens, UniProt Q96IY4); conditions: t-PA-induced lysis; cited from earlier work
T2 sequence (Q96IY4 115-423): T1 sequence (Q96IY4 115-423)

Compound: NC(N)=NCCSC(CC(=O)O)C(=O)O (centres unmarked) [GEMSA, guanidinoethyl-mercaptosuccinic acid]
- IC50 [1]: 35 µM
- effect on the inhibitory effect of plasma carboxypeptidase B on clot lysis [2]: blocked the inhibitory effect of plasma carboxypeptidase B on clot lysis
